Test results reported in patent US11819540B2, “Methods for treating and preventing neutrophil-derived net toxicity and thrombosis” (CHILDREN'S MEDICAL CENTER CORPORATION, priority 2011, dated 2023).

What was measured:
NETs [1] = assay: Incubation of NETs under static conditions, immunodetection of released histone H2B; assay type: cell-based, human
Text: (§1) For FIGS. 2A and 2B data are presented as mean±SEM, n=3; (Student's t test; *P<0.05; **P<0.01). […] A second band (arrowhead) may represent cross reactivity of the antibody or a proteolytic product. Data presented are representative of three independent experiments. FIG. 2D is a graph of the degree of aggregation of platelets treated with thrombin (open circles), human recombinant histone H3 (solid circles), EDTA (solid squares), and heparin (solid triangles). […] FIG. 2E is a graph of the degree of aggregation of platelets 3 minutes after addition of various histones or throbmin (Thr). […] (ANOVA; ***P<0.001 compared with histone H1).
The effect of heparin was also observed in medium, indicating a direct interaction of heparin with the NETs. Heparin has high affinity for histones (Pal et al., Thromb Res 1983 31:69-79) and releases histones from chromatin (Napirei et al. FEBS J 2009 276:1059-1073).

NETs [2] = assay: Perfusion of blood over NETs in a flow chamber; assay type: cell-based, human
Experimental: The interaction between NETs and blood was studied using NETs isolated from human neutrophils. Blood samples were obtained from healthy donors who had not taken any medication for at least 10 day. Platelets and neutrophils were prepared from ACD-blood (Brill A, et al. Cardiovasc Res 2009 84(1):137-144) or EDTA-blood (Fuchs et al., J Cell Biol 2007 176:231-241), respectively. Neutrophils were seeded into flow chambers (μ-Slide IV, IBIDI) at 0.5 to 1×10^7 cells/mL. NET formation by the majority of cells was induced by phorbol 12-myristate 13-acetate (PMA, 50 nM, 4 h; Sigma Aldrich) or glucose oxidase (GO, 1 U/mL, 4 h; Worthington Biochem), as previously described (Brill A, et al. Cardiovasc Res 2009 84(1):137-144). PMA-induced NETs were used for initial observations. Other experiments were done with GO-induced NETs. NETs were washed and blocked with 1% BSA (Calbiochem). NET-DNA was stained with 1 μg/mL Hoechst 33258 (Invitrogen) for 15 min at 37° C. or SytoxGreen (1 μM, Invitrogen). Washed platelets were loaded with fluorescent Calcein-AM (2.5 μg/mL, 10 min, 37° C.; Invitrogen) or platelets in whole blood were labeled with Rhodamine 6G (5 μg/mL, 10 min, 37° C.; Sigma). Fluorescent images were acquired by a Zeiss Axiovert 200 inverted fluorescence microscope in conjunction with a monochrome camera (AxioCam MRm). Colors for fluorescence channels were assigned using Axiovision software. Fluorescent areas in images were quantified using ImageJ software.
(§2) NETs were induced on glass coverslips and perfusion was performed using a parallel-plate flow chamber system (Glycotech). NETs were perfused with platelets suspended in plasma at a shear rate of 200/s or 900/s and 37° C. using a peristaltic pump and observed to be avidly adhering platelets. NETs were washed and fixed with 2.5% glutaraldehyde and electron microscopy was performed. […] NETs were also perfused with ACD-anticoagulated blood supplemented with the irreversible thrombin inhibitor PPACK-Dihydrochloride (100 μM; Calbiochem) and recalcified by addition of 2 mM CaCl2. […] Cells firmly attached to collagen or NETs were lysed with 100 μL of 0.5% Triton×100 in water. Hemoglobin content was measured using the method of Drabkin (Drabkin PNAS 1971 68:609-13). To quantify platelets, Rhodamine-6G fluorescence of the sample was analyzed using a fluorometer.
Strings of NETs aligned in the direction of flow and, importantly, NETs were not a static surface but moved in three dimensions. Within 1 min from onset of perfusion, small platelet aggregates appeared on NETs. Platelet adhesion and aggregation on NETs increased over the next 9 min. […] Both platelet aggregates and NETs were removed by DNase and 10 minutes after the beginning of perfusion (FIGS. 1C and 1D). […] Thus, NETs were the only prothrombotic substrate in these experiments. FIGS. 1C and 1D show data that are representative of at least three independent experiments and are shown as mean±SEM, n=3. AU means arbitrary units.

platelets = assay: Platelet aggregation (light transmission) with histones; assay type: cell-based, human; details: EDTA 5 mM; heparin
Text: as §1
The possibility of a direct interaction between platelets and histones was examined. […] Thrombin (0.5 U/mL; open circles in FIG. 2D) and […] served as a positive control in these experiments. Aggregation in response to histone H3 (FIG. 2D) and H4 (data not shown) was inhibited by EDTA (5 mM; solid squares in FIG. 2D) which excluded platelet agglutination caused by the positive charge of histones. […] Dissociating NETs and inhibiting histones could add to the antithrombotic effects of heparin.

collagen = assay: Perfusion of blood over collagen-coated flow chamber; assay type: cell-based; details: blood supplemented with DNase
Experimental: as §2
When NETs were washed after perfusion with blood and observed macroscopically a red thrombus was detectable (FIG. 3A). Shown in FIG. 3A is a flow chamber coated with NETs after perfusion with blood. Light microscopy of a red thrombus (arrow) anchored on two strings (arrowheads). FIG. 3A is a composite of multiple photographs of the flow chamber. (Scale bar, 500 μm). […] RBC adhesion to NETs was prevented when blood was supplemented with DNase, confirming that RBCs were attached to NETs. […]

[3] = system: blood clots (fibrin and NET scaffold); assay: Clot formation in recalcified blood with or without PAF-activated neutrophils (thrombolysis); assay type: cell-based, human; details: tPA 25 μg/mL, DNase 100 U/mL
Experimental: Fibrin polymerization was induced in blood by recalcification and incubated either in the absence (medium) or presence of neutrophils preactivated by PAF to induce NET formation (neutrophils+PAF). Samples were treated with DNase to digest extracellular traps or tPA for fibrin digestion. […] (Scale bar, 1 cm.) The graph presents quantification of the clots by weighing. […] Data are presented as mean±SEM, n=4; (ANOVA; ***P<0.001). The first bar in each x-axis category represents the untreated samples, the second bar represents the samples treated with DNase, the third bar represents the samples treated with tPA, and the fourth bar represents the samples treated with tPA and DNase.
The relative susceptibility of NETs and fibrin to serve as scaffolds for blood clots to thrombolysis was examined (FIG. 20). Neutrophils were prestimulated with platelet-activating factor to release NETs with recalcified blood under stirring conditions. Two-hundred-fifty microliters of 5×10^6 neutrophils per milliliter in RPMI medium were activated by platelet activating factor (50 μM Calbiochem) at 37° C. under static conditions to induce NET formation. Control samples were 250 μL medium alone, 250 μL of unstimulated neutrophils, or 250 μL of 50 μM PAF in medium. After 10 min, 250 μL of recalcified (40 mM CaCl2) ACD anticoagulated blood was added. […] Images were acquired and the clot was determined. […]

NETs [4] = assay: Binding of plasma VWF, fibronectin and fibrinogen to NETs; assay type: cell-based, human; details: DNaseI 100 U/mL, 10 min after plasma incubation
Experimental: FIGS. 19A-19C depict graphs of the binding of von Willebrand factor (VWF), fibronectin, and fibrinogen to neutrophil extracellular traps (NETs). Human NETs were incubated with human plasma for 30 min, washed, and stained for VWF (19A), fibronectin (19B), or fibrinogen (19C). […] Data are presented as mean±SEM, n=3; (Student's t test); **P<0.01; ***P<0.001.
Whether NETs can concentrate plasma proteins that promote and stabilize thrombi (Frenette and Wagener NEJM 1996 335:43-5) was determined. […] After the activation, NETs were incubated with 1% BSA for 1 h at 37° C. NETs were washed and incubated with 50% plasma in PBS for 30 min at 37° C. Next, NETs were washed and treated with DNaseI (100 U/mL, 10 min). After another wash, cells were fixed with paraformaldehyde (2%, 1 h at 37° C.) and unspecific binding sites were blocked with BSA (3%, 1 h at 37° C.). Primary antibodies were used at 1 μg/mL in PBS supplemented with 1% BSA and 0.1% Triton×100 [mouse-antifibrinogen, rabbit-antifibronectin (both Sigma); rabbit-anti-VWF, (Chemicon)]. After incubation at 37° C. for 1 h, samples were washed with PBS and fluorescently conjugated secondary antibodies (Invitrogen) were applied at 10 μg/mL for 30 min at 37° C. […] The interaction of fibrinogen with NETs and its ability to promote fibrin deposition was determined. […]

[5] = blood supplemented with DNase at the beginning of the perfusion

Compound	release of histones (H2B) from NETs (NETs [1])	platelet aggregates on NETs (NETs [2]; heparin 10 μg/mL)	NETs (NET-DNA) (NETs [2]; heparin 100 μg/mL, perfusion with heparinized blood, 10 min)	platelet aggregation in response to histone H3 and H4 in presence of inhibitor (platelets)	platelet adhesion to collagen-coated chambers (collagen)	clot formation ([3]; absence of activated neutrophils (medium))	clot formation / clot size ([3]; presence of PAF-activated neutrophils)	binding of VWF, fibronectin and fibrinogen to NETs (NETs [4])	NETs and adherent platelets after DNase addition (NETs [2]; DNase 100 U/mL added 10 min after beginning of perfusion)	RBC adhesion to NETs (NETs [2]; blood supplemented with DNase)	platelet adhesion to NETs (NETs [2]; blood supplemented with DNase)	NETs (NET-DNA area) (NETs [2]; [5])	platelet aggregates on NETs (NETs [2]; [5])
Heparin [reference compound]	released histones to the culture supernatant	removed platelet aggregates from NETs	almost completely dismantled NETs	completely abolished platelet response to these histones									
DNase	released histones to the culture supernatant				had no effect	had no effect	did not change	binding to NETs in a DNase-sensitive manner	simultaneously removed NETs and platelets	prevented	prevented platelet adhesion to NETs	NETs were degraded rapidly	platelet aggregates did not form
O=C(O)CN(CCN(CC(=O)O)CC(=O)O)CC(=O)O [EDTA, ethylenediaminetetraacetic acid]				inhibited									
